Results on two molecules are retold here after patent US12319679B2, “Morpholinyl, piperazinyl, oxazepanyl and diazepanyl O-glycoprotein-2-acetamido-2-deoxy-3-d-glucopyranosidase inhibitors” (BIOGEN MA INC., priority 2018, dated 2025).

For the test, the target named is T1, Recombinant full length human OGA enzyme (Homo sapiens, UniProt O60502).
T1 construct: Recombinant full length human OGA enzyme was purchased from Origene; purchased Origene
T1 sequence (O60502 1-916): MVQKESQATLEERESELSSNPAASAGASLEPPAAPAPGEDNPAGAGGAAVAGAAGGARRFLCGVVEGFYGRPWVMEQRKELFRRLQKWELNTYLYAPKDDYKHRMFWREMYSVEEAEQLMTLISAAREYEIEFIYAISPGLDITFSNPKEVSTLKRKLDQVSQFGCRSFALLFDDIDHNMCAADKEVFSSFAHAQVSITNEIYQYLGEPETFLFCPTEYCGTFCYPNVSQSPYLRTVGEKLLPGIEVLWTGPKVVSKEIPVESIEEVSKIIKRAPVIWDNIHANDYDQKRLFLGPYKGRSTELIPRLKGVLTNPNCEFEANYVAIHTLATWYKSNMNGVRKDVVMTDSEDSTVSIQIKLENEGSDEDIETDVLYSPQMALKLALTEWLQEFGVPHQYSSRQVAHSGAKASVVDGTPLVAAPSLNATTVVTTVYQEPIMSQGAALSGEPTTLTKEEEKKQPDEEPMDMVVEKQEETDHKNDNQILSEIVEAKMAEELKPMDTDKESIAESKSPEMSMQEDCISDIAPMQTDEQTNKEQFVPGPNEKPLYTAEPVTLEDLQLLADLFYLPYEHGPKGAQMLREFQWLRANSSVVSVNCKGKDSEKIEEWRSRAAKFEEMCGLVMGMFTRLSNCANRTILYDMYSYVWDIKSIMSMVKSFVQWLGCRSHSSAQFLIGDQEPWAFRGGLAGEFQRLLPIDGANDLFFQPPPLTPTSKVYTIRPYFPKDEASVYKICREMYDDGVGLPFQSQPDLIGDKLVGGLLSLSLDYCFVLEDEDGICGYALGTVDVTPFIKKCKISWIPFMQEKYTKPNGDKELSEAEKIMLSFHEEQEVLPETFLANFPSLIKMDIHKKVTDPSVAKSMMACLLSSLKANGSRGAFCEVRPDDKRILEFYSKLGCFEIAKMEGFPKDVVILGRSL
Nature of the test: OGA Enzyme Inhibition Biochemical Assay. Particulars: 1 nM OGA, 100 μM 4-MUGlcNAc (Km), pH 6.4, 90 minutes at room temperature; 10-point dose-response starting from 20 μM. In short, it runs like this:
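Full-length human OGA (1 nM) with 100 μM 4-MUGlcNAc (Km) in McIlvaine buffer pH 6.4, 0.01% BSA, 90 min at room temperature, then quenched with glycine pH 10. Fluorescence at Ex 355/Em 460 nm; 10-point 4-fold series from 20 μM, four-parameter variable-slope fit.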

By IC50 is commonly meant the concentration that gives 50% inhibition. Consider `CC(=O)Nc1ncc(CN2CCN(C)[C@H](Cc3ccc(C)nc3)C2)s1` [Example 4-15, (R)—N-(5-((4-methyl-3-((6-methylpyridin-3-yl)methyl)piperazin-1-yl)methyl)thiazol-2-yl)acetamide], for which the IC50 is greater than 20 µM.

As to `CC(=O)Nc1ncc(CN2CCN(C)[C@@H](Cc3ccc(C)nc3)C2)s1` [Example 4-16, (S)—N-(5-((4-methyl-3-((6-methylpyridin-3-yl)methyl)piperazin-1-yl)methyl)thiazol-2-yl)acetamide], the IC50 turned out to be 2 µM.
